These results are taken from PubChem BioAssay (NCI).

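Test compounds were applied to cells in 96-well plates for 48 hours at 5 doses. TGI: total growth inhibition.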

Among the test systems are MCF7 breast; COLO 205 colon; HT29 colon; NCI-H226 lung; SR leukemia; BT-549 breast; HCT-116 colon; 786-0 renal; UACC-257 melanoma; CCRF-CEM leukemia; OVCAR-5 ovarian; SF-539 CNS; LOX IMVI melanoma; SF-295 CNS; MDA-N; SF-268 CNS; TK-10 renal; HOP-92 NSCLC; UO-31 renal; OVCAR-4 ovarian.
Holding throughout (test): NCI tumour cell line growth inhibition, 48 h

As for `CC(C)(C)OC(=O)NC(Cc1ccc(OC(C)(C)C)cc1)C(=O)N[C@H]1CC[C@H](C(=O)O)C1` (some centres not stated), the TGI in the assay on MCF7 breast, in the assay with COLO 205 colon, in the assay with HT29 colon, in the assay on NCI-H226 lung, in the assay on SR leukemia and in the assay on BT-549 breast was over 100 µM each time. In addition, the TGI with HCT-116 colon, in the assay with 786-0 renal, in the assay on UACC-257 melanoma, in the assay on CCRF-CEM leukemia, in the assay on OVCAR-5 ovarian and with SF-539 CNS was over 100 µM in each case. The TGI with LOX IMVI melanoma, in the assay on SF-295 CNS, in the assay on MDA-N, in the assay on SF-268 CNS and in the assay on TK-10 renal was over 100 µM in each case.

As to `CC(=O)O[C@H]1[C@@H](OC2CCCC2(c2ccccc2)c2ccccc2)O[N+]([O-])=C[C@@H]1c1ccccc1` (some centres not stated), the TGI in the assay on MCF7 breast is 11.3 µM; with HOP-92 NSCLC, 18.2 µM; in the assay on COLO 205 colon, over 46 µM; in the assay on HT29 colon, 6.94 µM; in the assay with NCI-H226 lung, 80.2 µM; in the assay with SR leukemia, over 20.3 µM. The TGI in the assay on BT-549 breast was 17.5 µM; with HCT-116 colon it was 10.5 µM; with 786-0 renal, 3.26 µM; in the assay on UO-31 renal, 23.6 µM; with UACC-257 melanoma, 23.6 µM; in the assay on CCRF-CEM leukemia it was 14 µM. Also, the TGI in the assay on OVCAR-5 ovarian was determined as 35.6 µM; in the assay with OVCAR-4 ovarian, 21.4 µM; in the assay on LOX IMVI melanoma, 5.04 µM; in the assay with SF-295 CNS, 21.7 µM; in the assay with MDA-N, 15.6 µM; in the assay on SF-268 CNS, 13.4 µM. The TGI in the assay on TK-10 renal came to 23.2 µM.

Turning to `CNc1ccc(C)cc1S(=O)(=O)c1ccccc1[N+](=O)[O-]`, the TGI with MCF7 breast was 65 µM; with COLO 205 colon, over 100 µM; with HT29 colon, over 100 µM; with NCI-H226 lung, over 100 µM; in the assay with SR leukemia, over 100 µM; in the assay on BT-549 breast, over 100 µM. Besides, the TGI with HCT-116 colon, in the assay with 786-0 renal, in the assay on UO-31 renal, in the assay with CCRF-CEM leukemia, in the assay with OVCAR-5 ovarian and with SF-539 CNS was over 100 µM each time. The TGI is 92 µM in the assay with OVCAR-4 ovarian; over 100 µM in the assay on LOX IMVI melanoma; over 100 µM in the assay with SF-295 CNS; over 100 µM with MDA-N; over 100 µM in the assay with SF-268 CNS; over 100 µM in the assay with TK-10 renal.

As to `C=C(C)C1Cc2c(cc3c(c2O)c(=O)c2ccccc2n3C)O1` (configuration not stated), the TGI in the assay on MCF7 breast worked out at 17 µM; in the assay on HOP-92 NSCLC it was 21.3 µM; in the assay with COLO 205 colon it was 12.3 µM; in the assay on HT29 colon, 7.32 µM; in the assay on NCI-H226 lung, 6.77 µM; in the assay with SR leukemia it was 4.95 µM. Moreover, the TGI in the assay with BT-549 breast stood at 3.28 µM; with HCT-116 colon it was 4.94 µM; in the assay on 786-0 renal, 2.91 µM; with UO-31 renal it was 4.01 µM; in the assay on UACC-257 melanoma, 30.7 µM; in the assay on OVCAR-5 ovarian, 26.1 µM. Further, the TGI in the assay with SF-539 CNS is 5.99 µM; in the assay on OVCAR-4 ovarian it was 22.3 µM; with SF-295 CNS, 18.2 µM; with MDA-N, 12.2 µM; in the assay on SF-268 CNS, 14.2 µM; with TK-10 renal, 27 µM.

As to `O=C1CC(=O)NC(=NN2C(=O)CSC2c2ccc(Cl)cc2)N1` (configuration not stated), the TGI in the assay on MCF7 breast, in the assay on HOP-92 NSCLC, in the assay on COLO 205 colon, in the assay on HT29 colon, with NCI-H226 lung and in the assay on SR leukemia was over 100 µM in each case. Besides, the TGI was over 100 µM in the assay with BT-549 breast; over 100 µM in the assay on HCT-116 colon; over 100 µM in the assay on 786-0 renal; over 100 µM with UO-31 renal; over 100 µM in the assay on UACC-257 melanoma; 83.3 µM in the assay with CCRF-CEM leukemia. For the same compound, the TGI in the assay with OVCAR-5 ovarian, with SF-539 CNS, with OVCAR-4 ovarian, in the assay with SF-295 CNS, with MDA-N and in the assay with SF-268 CNS was over 100 µM in each case. Besides, in the assay with TK-10 renal, the TGI is over 100 µM.

`CCc1n[nH]c(=O)n1-n1c(C)ccc1C`: the TGI in the assay with MCF7 breast, in the assay on COLO 205 colon, in the assay with HT29 colon, in the assay on NCI-H226 lung, with SR leukemia and in the assay with BT-549 breast was over 100 µM each time. Also, the TGI with HCT-116 colon, in the assay with 786-0 renal, in the assay with UO-31 renal, in the assay with UACC-257 melanoma, with CCRF-CEM leukemia and with OVCAR-5 ovarian was over 100 µM in each case. Further, the TGI with OVCAR-4 ovarian, with LOX IMVI melanoma, with SF-295 CNS, with MDA-N, in the assay on SF-268 CNS and in the assay on TK-10 renal was over 100 µM throughout.

As to `CC1CCC2C(C)C(OC(=O)CCC(=O)O)OC3OC4(C)CCC1C32OO4` (configuration not stated), the TGI in the assay with MCF7 breast is 28.5 µM; in the assay with HOP-92 NSCLC, 31 µM; with COLO 205 colon, 6.71 µM; in the assay on HT29 colon, over 100 µM; with SR leukemia, 3.37 µM; in the assay with BT-549 breast, over 100 µM. Besides, the TGI was 16.3 µM in the assay with HCT-116 colon; over 100 µM in the assay with 786-0 renal; 3.88 µM with UO-31 renal; over 100 µM with UACC-257 melanoma; 36 µM in the assay with CCRF-CEM leukemia; 57.8 µM in the assay on OVCAR-5 ovarian. Moreover, the TGI was 29.1 µM with SF-539 CNS; 27.7 µM with OVCAR-4 ovarian; 2.92 µM in the assay with LOX IMVI melanoma; over 100 µM in the assay with SF-295 CNS; 38.7 µM with MDA-N; over 100 µM in the assay on SF-268 CNS. In the assay on TK-10 renal, this compound registered a TGI of 14.7 µM.

Consider `COC(=O)NCCc1[nH]nc2c1C(=O)C=C(Nc1ccccc1OC)C2=O`, for which the TGI with MCF7 breast was 38.7 µM; in the assay on HOP-92 NSCLC it was over 100 µM; in the assay on COLO 205 colon, 61.6 µM; with HT29 colon, over 100 µM; in the assay with SR leukemia, 86.1 µM; with BT-549 breast it was over 100 µM. Besides, the TGI in the assay with HCT-116 colon is 38.1 µM; in the assay with 786-0 renal, over 100 µM; with UO-31 renal it was over 100 µM; in the assay on UACC-257 melanoma it was 35.6 µM; with CCRF-CEM leukemia it was 88.9 µM; in the assay on OVCAR-5 ovarian it was over 100 µM. Further, the TGI in the assay with SF-539 CNS was 34.4 µM; with OVCAR-4 ovarian, 57.7 µM; with LOX IMVI melanoma, 69.9 µM; in the assay on SF-295 CNS it was over 100 µM; in the assay with MDA-N, 35.1 µM; in the assay on SF-268 CNS, over 100 µM. Also, the TGI in the assay with TK-10 renal was over 100 µM.

Regarding `CC1=C(C)C2(C#N)C(=O)N3C(=NC(c4ccco4)NC3c3ccco3)C2(C#N)C(c2ccco2)N1` (configuration not stated), the TGI in the assay on MCF7 breast, in the assay on HOP-92 NSCLC, with COLO 205 colon, with HT29 colon, in the assay with NCI-H226 lung and in the assay on SR leukemia was over 100 µM each time. In addition, the TGI in the assay on BT-549 breast, with HCT-116 colon, in the assay on 786-0 renal, with UO-31 renal, in the assay with UACC-257 melanoma and in the assay on CCRF-CEM leukemia was over 100 µM in each case. The TGI in the assay with OVCAR-5 ovarian, in the assay with OVCAR-4 ovarian, in the assay with LOX IMVI melanoma, in the assay on SF-295 CNS, with MDA-N and in the assay with SF-268 CNS was over 100 µM in each case. In addition, in the assay on TK-10 renal, the TGI was over 100 µM.

Take `CC(/C=C/c1ccccc1)=N\NC(=S)N/N=C(C)/C=C/c1ccccc1`: the TGI is over 100 µM in the assay on MCF7 breast; over 100 µM in the assay with COLO 205 colon; over 100 µM in the assay with HT29 colon; 63.1 µM with NCI-H226 lung; over 100 µM in the assay with SR leukemia; 56.7 µM in the assay on BT-549 breast. For the same compound, the TGI with HCT-116 colon was over 100 µM; with 786-0 renal it was 29.5 µM; in the assay on UO-31 renal, over 100 µM; in the assay on UACC-257 melanoma, over 100 µM; in the assay with CCRF-CEM leukemia it was over 100 µM; in the assay with OVCAR-5 ovarian, over 100 µM. For the same compound, the TGI was 47.2 µM in the assay with SF-539 CNS; 28.5 µM in the assay with OVCAR-4 ovarian; 28.8 µM in the assay on LOX IMVI melanoma; 61.6 µM in the assay with SF-295 CNS; over 100 µM with MDA-N; 21.7 µM in the assay on SF-268 CNS. Besides, the TGI in the assay on TK-10 renal came out at 46 µM.

For the compound `CN1CC=C(C#CC(C)(C)O)CC1`, the TGI in the assay with MCF7 breast, in the assay on COLO 205 colon, in the assay on HT29 colon, in the assay with NCI-H226 lung, with SR leukemia and in the assay on BT-549 breast was over 37.5 µM each time. In addition, the TGI with HCT-116 colon, with 786-0 renal, in the assay with UO-31 renal, with UACC-257 melanoma, in the assay on CCRF-CEM leukemia and with OVCAR-5 ovarian was over 37.5 µM throughout. In addition, the TGI in the assay with OVCAR-4 ovarian, with LOX IMVI melanoma, in the assay on SF-295 CNS, in the assay with MDA-N, with SF-268 CNS and with TK-10 renal was over 37.5 µM each time.

Regarding `Cc1cccc2c(N)c3cccc(C(=O)NCCNCCN)c3nc12`, the TGI is over 100 µM with MCF7 breast; over 71.8 µM with HOP-92 NSCLC; over 33.4 µM in the assay on COLO 205 colon; 91.2 µM in the assay on HT29 colon; over 100 µM in the assay with SR leukemia; 33.3 µM in the assay with BT-549 breast. The TGI is over 42.6 µM in the assay on HCT-116 colon; 16.9 µM in the assay on 786-0 renal; 51.5 µM in the assay with UO-31 renal; 99.3 µM in the assay with UACC-257 melanoma; over 100 µM with CCRF-CEM leukemia; over 100 µM in the assay on OVCAR-5 ovarian. Also, the TGI was 22.4 µM with SF-539 CNS; 19.1 µM in the assay on OVCAR-4 ovarian; 39.9 µM with LOX IMVI melanoma; over 100 µM in the assay on SF-295 CNS; 58.6 µM in the assay on MDA-N; 1.27 µM in the assay with SF-268 CNS. Further, the TGI in the assay on TK-10 renal is 95.4 µM.
